Test results reported in US6229029A, “11β-aryl substituted 14,17-ethanoestratriens, method for the production of these compounds and their use in the production of medicaments” (Schering Aktiengesellschaft, priority 1997, dated 2001).

Assays:
[1] = test system: bone (distal femur / proximal tibia) of ovariectomized rats; test: Bone studies in ovariectomized rats: bone density by pQCT; assay type: in vivo, rat; settings: for % of Action of E2 (bone density tibia) / Bone Density Tibia: Table 7, proximal tibia
[2] = test system: trabecular bone (proximal tibia) of ovariectomized rats; test: Bone studies in ovariectomized rats: trabecular bone surface area (TB/TV), histological, proximal tibia; assay type: in vivo, rat; settings: 28 days
Description: 3-month-old female rats are ovariectomized and treated once daily with the test compound immediately after the operation for 28 days. The administration is done subcutaneously in castor oil/benzyl benzoate or arachis oil/ethanol. The animals are sacrificed on the day after the last administration, and femurs, tibiae and uteri are removed. The uteri are weighed, fixed and worked up for histological studies. The determination of the bone density is carried out ex vivo on prepared long bones with use of pQCT (Quantitative Computer Tomography). The measurements are performed at a distance of 5-7 mm from the ball of the joint on the distal femur or the proximal tibia.
As an alternative, the action on the bone is determined by measuring the trabecular bone surface area of the secondary spongiosa in histological preparations of the distal femur or the proximal tibia. The result is expressed as the proportion, in percent, of the trabecular bone surface area in the measured total bone surface area ([…]). The bone density that is measured with use of QCT and the trabecular bone surface area that is determined in the histological section correlate well to one another. A comparison of the two measurement variables is therefore permissible.
About 50% of the bone density of the animals is lost by the ovariectomy. […] In Table 4 and FIG. 2, the results of this test for doses of 0.1-100 μg/animal/day are presented. The bone density was measured on the distal femur; for comparison, the trabecular bone surface area in the proximal tibia was measured. The data that are contained in Table 4 mean specifically:
TB/TV trabecular bone surface area/total bone surface area; histologically determined
For compound B according to the invention, their bone-protecting action was also determined (Table 6). For this purpose, the parameter of TB/TV was determined, which, however, with respect to the informational value for the bone-protecting activity correlates well to the parameter of BMD-qCT that is determined for compounds A and V. This can be ascertained from Table 4; both parameters were determined for compound A.

[3] = target: T1, estrogen receptors (Homo sapiens, UniProt P03372); test: Transactivation assay in HeLa cells (partial estrogenic action, rPR-TK); assay type: cell-based; settings: rPR-TK reporter, read-out: Agonism HELA (rPR-TK)
T1 construct: expressed in transfected cells; host or cells: HeLa cells
Description: The partial estrogenic action was also determined by transactivation assays. HeLa cells were […] with estrogen receptors and a reporter gene, which consists of the estrogen-response element of the progesterone receptor and the CAT-gene. The test was performed as described: Savouret et al., EMBO J. 10, 1875-1883 (1991).

[4] = target: T2, human estrogen receptor (Homo sapiens, UniProt P03372); test: Transactivation assay in HeLa cells (antiestrogenic action, vit-TK-CAT reporter); assay type: cell-based; settings: in the presence of 0.1 nM estradiol, read-out: Antagonism IC50, HELA
T2 construct: expressed in transfected cells; host or cells: HeLa cells
T2 sequence (P03372 1-595): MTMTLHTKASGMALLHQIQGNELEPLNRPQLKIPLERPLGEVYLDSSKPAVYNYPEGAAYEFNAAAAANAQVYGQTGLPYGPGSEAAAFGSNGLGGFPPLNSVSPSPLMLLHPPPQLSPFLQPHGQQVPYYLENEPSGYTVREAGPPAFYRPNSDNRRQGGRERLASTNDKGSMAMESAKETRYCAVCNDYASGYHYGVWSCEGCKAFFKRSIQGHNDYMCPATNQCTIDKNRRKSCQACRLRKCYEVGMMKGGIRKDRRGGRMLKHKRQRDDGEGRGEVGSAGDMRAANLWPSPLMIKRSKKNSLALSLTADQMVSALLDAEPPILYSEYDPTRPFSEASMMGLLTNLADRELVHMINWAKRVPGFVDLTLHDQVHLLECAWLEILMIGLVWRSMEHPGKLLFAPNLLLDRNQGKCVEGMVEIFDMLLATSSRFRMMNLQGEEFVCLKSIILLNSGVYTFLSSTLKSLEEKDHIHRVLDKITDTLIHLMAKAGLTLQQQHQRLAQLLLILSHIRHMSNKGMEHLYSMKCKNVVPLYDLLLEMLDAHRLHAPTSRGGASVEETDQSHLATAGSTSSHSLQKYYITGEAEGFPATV

[5] = test system: uterus of infant rats; test: Anti-uterus growth test in infant rats (antiestrogenic action); assay type: in vivo, rat; settings: with 0.3 μg/animal/day 17β-estradiol
Source text: (§1) The influence of the compounds according to the invention on the uterus was examined in the uterus growth test (estrogenic action) and in the anti-uterus growth test (antiestrogenic action), both performed on infant rats.
The uterus of infant estrogen-substituted rats can be used as a test model to detect a direct action of substances with antiestrogenic properties. The parameter of the estrogenic action is the uterus growth that is induced by estradiol in infant rats and that is inhibited by simultaneous administration of a substance with antiestrogenic action.
The test substances are treated s.c. on 3 successive days (d1-d3) in combination with a substitution dose of 0.3 μg/animal/day of 17β-estradiol. As a positive control, 17β-estradiol alone is used; the vehicle group is used as a negative control. On day 4 (d4), the animals are sacrificed, uteri and vaginae are prepared outside and weighed. The organ weights are converted into mg/100 g of body weight, and then the mean and the standard deviation for each dosage are calculated. The inhibition of the uterus or vaginal growth that is induced by 17β-estradiol is indicated in % as inhibition.

[6] = test system: bone / uterus of rats; test: Dissociation of bone action/uterus action (FIG. 7); assay type: in vivo, rat; settings: bone action vs uterus epithelial height, relative to 17β-estradiol
Source text: There, for compounds A, B and V, their bone-protecting actions are compared to the action of estrogen on the uterus (parameter: uterus epithelial height) as a function of dosage, in each case relative to the action of 17β-estradiol.

[7] = test system: uterus of infant rats; test: Uterus growth test on infant rats (estrogenic action); assay type: in vivo, rat; settings: for Epithelial Height % E2 / Uterus Weight % E2: 3 days, infant rats; for estrogenic action in the uterus (in words): uterus growth test
Source text: as §1
In infant animals, both uterus and vagina show one of the estrogenic activity-dependent weight increases in their treatment with an estrogenically active substance. In the uterus, under estrogenic action, moreover, it results in a proliferation and height increase of the luminal epithelium.
Immature, normal rats (body weight 40-50 g) receive the substance s.c. over 3 days (d1-d3). On day 4 (d4), the animals are sacrificed with CO2. The uteri are prepared outside and weighed. A piece of the uterus, preferably a uterine horn, is set in formaldehyde for the histological evaluation and embedded in paraffin. The stimulation of the organ weights (relative to mg/100 g of body weight) and the epithelial height are indicated in percentage stimulation in comparison to the reference compound 17β-estradiol. (Substitution dose E2 0.3 μg/animal).

[8] = Table 4, distal femur, 0.3 μg/animal/day s.c., 28 days
[9] = Table 5, proximal tibia, 0.3 μg/animal/day s.c., 28 days
[10] = 0.3 μg/animal/day s.c., 28 days
[11] = Table 6, tibia, 0.3 μg/animal/day s.c.
[12] = Table 6, tibia, 1 μg/animal/day s.c.
[13] = Table 6, tibia, 10 μg/animal/day s.c.
[14] = Table 6, tibia, 100 μg/animal/day s.c.
[15] = 100 μg/animal/day s.c., 28 days
[16] = 250 μg/animal/day s.c., 28 days

C[C@]12CC[C@@H]3c4ccc(O)cc4CC[C@H]3[C@@H]1CC[C@@H]2O [17β-estradiol, reference compound]
% of Action of E2 (bone density femur) [1, 8]: 100% | Bone Density Femur [1, 8]: 361.7 mg Ca/ccm | % of Action of E2 (bone density) [1, 9]: 100% | Bone Density [1, 9]: 375.2 mg Ca/ccm | % of Action of E2 (bone density tibia) [1, 10]: 100% | Bone Density Tibia [1, 10]: 402.9 mg Ca/ccm | TB/TV (Tibia) ([2]; Table 4, proximal tibia, 0.3 μg/animal/day s.c.): 34.0% | % of Action of E2 (TB/TV) [2, 11]: 100% | TB/TV (Tibia) [2, 11]: 26.0%

C[C@]12C[C@H](c3ccc(OCCCCC[S+]([O-])Cc4ccccn4)cc3)[C@@H]3c4ccc(O)cc4CC[C@H]3[C@]13CC[C@@]2(O)CC3 (stereo partly drawn) [Compound B, 14α,17α-ethano-11β-{4-[5-(2-pyridinomethylsulfinyl)pentyloxy]phenyl}-1,3,5(10)-estratriene-3,17β-diol]
Emax [3]: 50% | IC50 [4]: 0.3 nM | Uterus Weight % of Inhibition ([5]; 0.1 mg/kg s.c.): 32% | Uterus Weight % of Inhibition ([5]; 1 mg/kg s.c.): 83% | Uterus Weight % of Inhibition ([5]; 10 mg/kg s.c.): 100% | dissociation of bone-protecting action from estrogen action on the uterus (in words) [6]: considerably dissociated | % of Action of E2 (TB/TV) [2, 12]: 52% | TB/TV (Tibia) [2, 12]: 19.6% | % of Action of E2 (TB/TV) [2, 13]: 47% | TB/TV (Tibia) [2, 13]: 18.9% | % of Action of E2 (TB/TV) [2, 14]: 45% | TB/TV (Tibia) [2, 14]: 18.6% | Epithelial Height % E2 ([7]; 0.01 mg/kg s.c.): 4 % E2 | Uterus Weight % E2 ([7]; 0.01 mg/kg s.c.): 3 % E2 | Epithelial Height % E2 ([7]; 0.1 mg/kg s.c.): 19 % E2 | Uterus Weight % E2 ([7]; 0.1 mg/kg s.c.): 31 % E2 | Epithelial Height % E2 ([7]; 1 mg/kg s.c.): 18 % E2 | Uterus Weight % E2 ([7]; 1 mg/kg s.c.): 14 % E2 | Epithelial Height % E2 ([7]; 10 mg/kg s.c.): 13 % E2 | Uterus Weight % E2 ([7]; 10 mg/kg s.c.): 6 % E2 | estrogenic activity relative to compound V (in words) ([7]; s.c., in the considered dose range, vs compound V): approximately half as strongly estrogenically active | estrogenic action in the uterus (in words) ([7]; s.c.): low estrogenic action

C[C@]12C[C@H](c3ccc(OCCCCC[S+]([O-])Cc4ccccn4)cc3)[C@@H]3c4ccc(O)cc4CC[C@H]3[C@@H]1CC[C@@H]2O (stereo partly drawn) [Compound V, reference compound]
Emax [3]: 37% | % of Action of E2 (bone density tibia) ([1]; 10 μg/animal/day s.c., 28 days): 40% | Bone Density Tibia ([1]; 10 μg/animal/day s.c., 28 days): 337.3 mg Ca/ccm | % of Action of E2 (bone density tibia) [1, 15]: 34.4% | Bone Density Tibia [1, 15]: 331.2 mg Ca/ccm | % of Action of E2 (bone density tibia) [1, 16]: 74% | Bone Density Tibia [1, 16]: 374.3 mg Ca/ccm | dose with which an action of about 80% of 17β-estradiol on trabecular bone is achieved ([1]; proximal tibia, s.c.): 250 μg/animal/day | Uterus Weight % of Inhibition ([5]; 0.3 mg/kg s.c.): 57% | dissociation of bone-protecting action from estrogen action on the uterus (in words) [6]: the two curves coincide | Epithelial Height % E2 ([7]; 0.03 mg/kg s.c.): 18 % E2 | Uterus Weight % E2 ([7]; 0.03 mg/kg s.c.): 28 % E2 | Epithelial Height % E2 ([7]; 0.3 mg/kg s.c.): 33 % E2 | Uterus Weight % E2 ([7]; 0.3 mg/kg s.c.): 32 % E2 | Epithelial Height % E2 ([7]; 3 mg/kg s.c.): 27 % E2 | Uterus Weight % E2 ([7]; 3 mg/kg s.c.): 19 % E2 | estrogenic action in the uterus (in words) ([7]; s.c.): low estrogenic action
